The results in this text go back to US20080261812A1, “Pesticidal Mixtures” (BASF SE, priority 2005, published 2008).

Where two headings read alike, the source gives them in different places.

The experiment concerns southern armyworm (Spodoptera eridania) 3rd-instar larvae. Briefly: Laboratory bioassay with southern armyworm larvae on dip-treated lima bean leaves. The format is in vivo. The following applies: foliar, 120 h, read-out: % Mortality Observed. The source says: Serial dilutions of technical grade insecticides were made in 1:1 acetone:water diluent. Lima bean leaves were dipped into treatment solutions and allowed to air-dry. A single treated leaf was placed topside-up onto water-moistened filter paper in plastic Petri dishes, and then seven 3rd-instar southern armyworm (Spodoptera eridania) larvae were placed onto each leaf. Dishes were covered with a plastic lid to contain larvae. Each treatment was replicated 4 times (1 replicate=1 Petri dish). Following treatment application, infested Petri dishes were held in the laboratory under fluorescent lighting at 26° C. Numbers of live and dead larvae were counted in each dish at 5 days after treatment (DAT), and percent mortality was calculated for each treatment.
To determine if the insecticidal mixture was synergistic, Limpel's formula was used:
E=Expected % mortality of the mixture X=% mortality of compound X, as measured independently Y=% mortality of compound Y, as measured independently
Synergism was evident if the % observed mortality for the mixture was greater than the % expected mortality.

Turning to `N#Cc1ccc(CC(=NNC(=O)Nc2ccc(OC(F)(F)F)cc2)c2cccc(C(F)(F)F)c2)cc1` [Metaflumizone, metaflumizone], the mortality at 0.6 ppm (single insecticide, dose concentration 0.6 ppm, leaf dip, 5 DAT, 3rd-instar larvae) is 0%. Also, for the setting “single insecticide, dose concentration 1.0 ppm, leaf dip, 5 DAT, 3rd-instar larvae”, the mortality at 1 ppm came out at 7%.

As for `FC(F)(F)c1ccc(OCCCOc2c(Cl)cc(OCC=C(Cl)Cl)cc2Cl)nc1` [Pyridalyl, 2,6-dichloro-4-(3,3-dichloroallyloxy)phenyl 3-[5-(trifluoromethyl)-2-pyridyloxy]propyl ether], the mortality at 0.6 ppm was found to be 10%.

As usually defined, the mortality is the percentage killed.
